From patent US8680113B2, “BMI-1 protein expression modulators” (PTC Therapeutics, Inc., priority 2008, dated 2014)
Blank lines part the entries; values can stand above or below the compound they belong to.

Tests used:
Bmi-1 [1] = assay: Cell Model Assay: Bmi-1 expression in KG1; assay type: cell-based; details: KG1 (acute myelogenous leukemia)
Procedure: (§1) Using assay conditions known to those skilled in the art, the ability of the compounds described herein to reduce Bmi-1 expression in HT1080 (fibrosarcoma), U87-MG (glioblastoma), T98G (glioblastoma), K562 (chronic myelogenous leukemia) and KG1 (acute myelogenous leukemia) cell lines was tested (at test compound concentrations calculated from the ELISA assay data shown in Example 1) compared to puromycin as a control to provide the EC50 values shown in Table 2. The term “ND” means that data was not determined.

Bmi-1 [2] = assay: Cell Model Assay: Bmi-1 expression in K562; assay type: cell-based; details: K562 (chronic myelogenous leukemia)
Procedure: as §1

Bmi-1 [3] = assay: Sandwich ELISA Assay (Bmi-1 ELISA in HT-1080 cells); assay type: cell-based, human
In short: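 HT-1080 cells (8000/well) were treated with compounds in 0.5% final DMSO for 40-48 h at 37°C and then lysed. Bmi-1 in lysates was measured by sandwich ELISA: overnight capture at 4°C on mouse monoclonal, rabbit anti-Bmi-1 detection, HRP anti-rabbit, TMB. OD450 was read with an OD570 reference against a recombinant GST-Bmi-1 standard curve (0-8000 pg/mL).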

Bmi-1 [4] = assay: Cell Model Assay: Bmi-1 expression in U87-MG; assay type: cell-based; details: U87-MG (glioblastoma)
Procedure: as §1

Bmi-1 [5] = assay: Cell Model Assay: Bmi-1 expression in T98G; assay type: cell-based; details: T98G (glioblastoma)
Procedure: as §1

Bmi-1 [6] = assay: Cell Model Assay: Bmi-1 expression in HT1080; assay type: cell-based, human; details: HT1080 (fibrosarcoma)
Procedure: as §1

MCL-Jeko = assay: Mantle Cell Lymphoma Assay: cytotoxicity, Jeko; assay type: cell-based; details: 72 hrs in culture
Excerpt: (§2) MCL cell lines Jeko, Mino, and Rec-1 were provided by American Type Culture Collection: The Bioresource Center (Manassas, Va.). […] Carlsbad, Calif.) in T-75 culture flasks. Cell concentration was maintained between 2 to 3×10^5 cells/mL. Early passage cells (passages 2-4) were used for all experiments. Ficoll-Histopaque density sedimentation (Sigma Aldrich) was used for separation of debris and purification of cell lines prior to experiments. […] The cytotoxic effect of test compounds on the MCL-cell lines was assessed by measuring cell concentration and cell viability using a Beckman Coulter Vi-Cell Counter. Controls and treated cells were harvested and counted at day 3.

MCL-Mino = assay: Mantle Cell Lymphoma Assay: cytotoxicity, Mino; assay type: cell-based; details: 72 hrs in culture
Excerpt: as §2

MCL-Rec1 = assay: Mantle Cell Lymphoma Assay: cytotoxicity, Rec-1; assay type: cell-based; details: 72 hrs in culture
Excerpt: as §2

MM cell line = assay: Multiple Myeloma Assay; assay type: cell-based; details: 72 hrs in culture

SMILES: COc1cc(Cl)c(Nc2nc(-c3cnc4ccc(Cl)cn34)cs2)c(Cl)c1 [Cpd 26, 4-(6-chloroimidazo[1,2-a]pyridine-3-yl)-N-(2,6-dichloro-4-methoxyphenyl)thiazol-2-amine]
EC50 (Bmi-1 [1]): 317 nM
EC50 (Bmi-1 [2]): 234 nM
IC50 (Bmi-1 [3]): 1000 to 3000 nM

SMILES: COc1ccc(C[C@H](N)C(=O)N[C@H]2[C@@H](O)[C@H](n3cnc4c(N(C)C)ncnc43)O[C@@H]2CO)cc1 [Control, puromycin, reference compound]
EC50 (Bmi-1 [4]): 420 nM
EC50 (Bmi-1 [1]): 1100 nM
EC50 (Bmi-1 [5]): 230 nM
EC50 (Bmi-1 [2]): 490 nM
EC50 (Bmi-1 [6]): 450 nM

SMILES: COCCOc1cc(Br)c(Nc2nc(-c3cnc4ccc(Cl)cn34)cs2)c(Br)c1 [Cpd 134, 4-(6-chloroimidazo[1,2-a]pyridin-3-yl)-N-[2,6-dibromo-4-(2-methoxyethoxy)phenyl]-1,3-thiazol-2-amine]
Cell Concentration, MCL-Jeko (MCL-Jeko; dose 0.004 μM): 2.11 ± 0.04 ×10^6
viability at 0.004 µM (MCL-Jeko; dose 0.004 μM, read-out: Cell Viability, MCL-Jeko): 94.1 ± 0.23%
Cell Concentration, MCL-Jeko (MCL-Jeko; dose 0.037 μM): 2.11 ± 0.03 ×10^6
viability at 0.037 µM (MCL-Jeko; dose 0.037 μM, read-out: Cell Viability, MCL-Jeko): 94.37 ± 0.18%
Cell Concentration, MCL-Jeko (MCL-Jeko; dose 0.11 μM): 1.97 ± 0.11 ×10^6
viability at 0.11 µM (MCL-Jeko; dose 0.11 μM, read-out: Cell Viability, MCL-Jeko): 93.77 ± 0.15%
Cell Concentration, MCL-Jeko (MCL-Jeko; dose 0.33 μM): 1.95 ± 0.02 ×10^6
viability at 0.33 µM (MCL-Jeko; dose 0.33 μM, read-out: Cell Viability, MCL-Jeko): 93.67 ± 0.13%
Cell Concentration, MCL-Jeko (MCL-Jeko; dose 1 μM): 1.82 ± 0.05 ×10^6
viability at 1 µM (MCL-Jeko; dose 1 μM, read-out: Cell Viability, MCL-Jeko): 93.87 ± 0.06%
Cell Concentration, MCL-Jeko (MCL-Jeko; dose 3 μM): 1.81 ± 0.02 ×10^6
viability at 3 µM (MCL-Jeko; dose 3 μM, read-out: Cell Viability, MCL-Jeko): 92.4 ± 0.22%
viability at 0.004 µM (MCL-Mino; Homo sapiens, MINO, dose 0.004 μM, read-out: Cell Viability, MCL-Mino): 84.8 ± 0.7%
viability at 0.037 µM (MCL-Mino; Homo sapiens, MINO, dose 0.037 μM, read-out: Cell Viability, MCL-Mino): 86.2 ± 0.8%
viability at 0.11 µM (MCL-Mino; Homo sapiens, MINO, dose 0.11 μM, read-out: Cell Viability, MCL-Mino): 84.6 ± 0.5%
viability at 0.33 µM (MCL-Mino; Homo sapiens, MINO, dose 0.33 μM, read-out: Cell Viability, MCL-Mino): 83.8 ± 0.2%
viability at 1 µM (MCL-Mino; Homo sapiens, MINO, dose 1 μM, read-out: Cell Viability, MCL-Mino): 81.4 ± 0.8%
viability at 3 µM (MCL-Mino; Homo sapiens, MINO, dose 3 μM, read-out: Cell Viability, MCL-Mino): 79 ± 0.8%
Cell Concentration, MCL-Mino (MCL-Mino; dose 0.004 μM): 0.63 ± 0.01 ×10^6
Cell Concentration, MCL-Mino (MCL-Mino; dose 0.037 μM): 0.65 ± 0.01 ×10^6
Cell Concentration, MCL-Mino (MCL-Mino; dose 0.11 μM): 0.65 ± 0.01 ×10^6
Cell Concentration, MCL-Mino (MCL-Mino; dose 0.33 μM): 0.59 ± 0.01 ×10^6
Cell Concentration, MCL-Mino (MCL-Mino; dose 1 μM): 0.56 ± 0.02 ×10^6
Cell Concentration, MCL-Mino (MCL-Mino; dose 3 μM): 0.47 ± 0.02 ×10^6
IC50 (Bmi-1 [3]): < 500 nM
viability at 0.004 µM (MCL-Rec1; Homo sapiens, Rec1, dose 0.004 μM, read-out: Cell Viability, MCL-Rec1): 89.43 ± 0.18%
viability at 0.037 µM (MCL-Rec1; Homo sapiens, Rec1, dose 0.037 μM, read-out: Cell Viability, MCL-Rec1): 88.9 ± 1%
viability at 0.11 µM (MCL-Rec1; Homo sapiens, Rec1, dose 0.11 μM, read-out: Cell Viability, MCL-Rec1): 90.2 ± 0.63%
viability at 0.33 µM (MCL-Rec1; Homo sapiens, Rec1, dose 0.33 μM, read-out: Cell Viability, MCL-Rec1): 88.63 ± 0.24%
viability at 1 µM (MCL-Rec1; Homo sapiens, Rec1, dose 1 μM, read-out: Cell Viability, MCL-Rec1): 88.43 ± 0.48%
viability at 3 µM (MCL-Rec1; Homo sapiens, Rec1, dose 3 μM, read-out: Cell Viability, MCL-Rec1): 86.67 ± 0.84%
Cell Concentration, MCL-Rec1 (MCL-Rec1; dose 0.004 μM): 0.84 ± 0.02 ×10^6
Cell Concentration, MCL-Rec1 (MCL-Rec1; dose 0.037 μM): 0.86 ± 0.02 ×10^6
Cell Concentration, MCL-Rec1 (MCL-Rec1; dose 0.11 μM): 0.90 ± 0.01 ×10^6
Cell Concentration, MCL-Rec1 (MCL-Rec1; dose 0.33 μM): 0.85 ± 0.02 ×10^6
Cell Concentration, MCL-Rec1 (MCL-Rec1; dose 1 μM): 0.78 ± 0.03 ×10^6
Cell Concentration, MCL-Rec1 (MCL-Rec1; dose 3 μM): 0.73 ± 0.02 ×10^6
Cell Concentration, MM cell line (MM cell line; dose 0.004 μM): 1.36 ± 0.01 ×10^6
viability at 0.004 µM (MM cell line; dose 0.004 μM): 91.17 ± 0.43%
Cell Concentration, MM cell line (MM cell line; dose 0.037 μM): 1.33 ± 0.01 ×10^6
viability at 0.037 µM (MM cell line; dose 0.037 μM): 90.27 ± 0.1%
Cell Concentration, MM cell line (MM cell line; dose 0.11 μM): 1.28 ± 0.01 ×10^6
viability at 0.11 µM (MM cell line; dose 0.11 μM): 87.93 ± 0.5%
Cell Concentration, MM cell line (MM cell line; dose 0.33 μM): 1.18 ± 0.04 ×10^6
viability at 0.33 µM (MM cell line; dose 0.33 μM): 86.1 ± 0.31%
Cell Concentration, MM cell line (MM cell line; dose 1 μM): 1.06 ± 0.01 ×10^6
viability at 1 µM (MM cell line; dose 1 μM): 83.47 ± 0.46%
Cell Concentration, MM cell line (MM cell line; dose 3 μM): 0.75 ± 0.03 ×10^6
viability at 3 µM (MM cell line; dose 3 μM): 76.5 ± 1.48%

Now from value to compound:

EC50 (Bmi-1 [1]): 48 nM
EC50 (Bmi-1 [2]): 261 nM
IC50 (Bmi-1 [3]): < 500 nM
SMILES: COc1cccc(Nc2nccc(-c3cnc4ccccn34)n2)c1 [Cpd 28, 4-(imidazo[1,2-a]pyridine-3-yl)-N-(3-methoxyphenyl)pyrimidin-2-amine]

EC50 (Bmi-1 [4]): < 4 nM
EC50 (Bmi-1 [5]): < 4 nM
IC50 (Bmi-1 [3]): < 500 nM
EC50 (Bmi-1 [6]): 5 nM
SMILES: Cc1nc2ncccn2c1-c1csc(Nc2ccc(I)cc2)n1 [Cpd 39, N-(4-iodophenyl)-4-(2-methylimidazo[1,2-a]pyrimidin-3-yl)-1,3-thiazol-2-amine]
